These results are taken from ChEMBL document CHEMBL5291721, “A preclinical secondary pharmacology resource illuminates target-adverse drug reaction associations of marketed drugs” (Nat Commun, 2023).

The AC50 is the midpoint of the concentration-response curve, whichever way the signal moves.

For assay [1], the target named is T1, Cholecystokinin receptor type A (Homo sapiens, UniProt P32238).
T1 sequence (P32238 whole entry): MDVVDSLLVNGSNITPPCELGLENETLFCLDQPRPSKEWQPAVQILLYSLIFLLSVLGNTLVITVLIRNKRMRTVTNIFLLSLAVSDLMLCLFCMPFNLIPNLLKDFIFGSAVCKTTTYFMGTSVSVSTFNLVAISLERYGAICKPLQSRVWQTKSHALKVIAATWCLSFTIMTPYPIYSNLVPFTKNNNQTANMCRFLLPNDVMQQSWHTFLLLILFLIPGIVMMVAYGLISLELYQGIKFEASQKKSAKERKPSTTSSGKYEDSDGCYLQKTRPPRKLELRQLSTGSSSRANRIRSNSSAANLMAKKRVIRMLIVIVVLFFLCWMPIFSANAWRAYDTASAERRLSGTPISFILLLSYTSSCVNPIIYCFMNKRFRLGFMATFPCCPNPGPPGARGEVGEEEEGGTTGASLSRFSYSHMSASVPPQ

Assay [2] has as its target 5-hydroxytryptamine receptor 2A (Homo sapiens, UniProt P28223). It counts as functional, cell-based.
A further assay addresses Histamine H1 receptor (Homo sapiens, UniProt P35367).
The target of assay [3] is Delta-type opioid receptor (Homo sapiens, UniProt P41143).
The next assay has as its target T2, Adenosine receptor A1 (Homo sapiens, UniProt P30542).
T2 sequence (P30542 whole entry): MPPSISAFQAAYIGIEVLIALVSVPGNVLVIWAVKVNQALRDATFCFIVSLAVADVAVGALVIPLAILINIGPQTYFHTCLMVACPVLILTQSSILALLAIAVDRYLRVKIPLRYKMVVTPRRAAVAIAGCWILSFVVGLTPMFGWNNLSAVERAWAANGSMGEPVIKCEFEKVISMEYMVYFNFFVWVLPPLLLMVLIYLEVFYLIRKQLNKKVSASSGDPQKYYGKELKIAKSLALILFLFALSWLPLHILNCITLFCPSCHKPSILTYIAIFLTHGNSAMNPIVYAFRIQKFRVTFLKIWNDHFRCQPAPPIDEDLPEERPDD

For assay [4], the target named is T3, Type-1 angiotensin II receptor (Homo sapiens, UniProt P30556).
T3 sequence (P30556 whole entry): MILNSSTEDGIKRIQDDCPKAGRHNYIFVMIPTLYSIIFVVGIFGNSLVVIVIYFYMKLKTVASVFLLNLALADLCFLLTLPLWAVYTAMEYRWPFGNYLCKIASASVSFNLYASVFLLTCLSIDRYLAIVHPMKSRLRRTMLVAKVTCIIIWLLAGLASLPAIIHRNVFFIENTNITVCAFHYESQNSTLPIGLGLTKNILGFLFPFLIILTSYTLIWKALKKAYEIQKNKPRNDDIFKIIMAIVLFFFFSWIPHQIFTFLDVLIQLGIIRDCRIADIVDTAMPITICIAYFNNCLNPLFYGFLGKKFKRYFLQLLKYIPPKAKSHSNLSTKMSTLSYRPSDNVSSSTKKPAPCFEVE

Assay [5] deals with T4, 5-hydroxytryptamine receptor 3A (Homo sapiens, UniProt P46098).
T4 sequence (P46098 whole entry): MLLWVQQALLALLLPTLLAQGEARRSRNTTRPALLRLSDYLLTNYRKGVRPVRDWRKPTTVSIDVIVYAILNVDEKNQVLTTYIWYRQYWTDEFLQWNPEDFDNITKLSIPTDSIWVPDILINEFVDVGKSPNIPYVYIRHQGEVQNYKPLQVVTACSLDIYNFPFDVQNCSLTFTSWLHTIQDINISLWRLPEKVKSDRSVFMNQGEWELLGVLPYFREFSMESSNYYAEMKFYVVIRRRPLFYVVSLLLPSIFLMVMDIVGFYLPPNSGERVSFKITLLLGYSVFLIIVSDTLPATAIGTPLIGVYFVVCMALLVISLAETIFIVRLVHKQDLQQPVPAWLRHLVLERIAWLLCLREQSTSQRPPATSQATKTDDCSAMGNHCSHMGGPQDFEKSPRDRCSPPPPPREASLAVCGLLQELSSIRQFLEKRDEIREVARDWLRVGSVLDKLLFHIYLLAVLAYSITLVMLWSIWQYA
In kind it is functional.

In assay [6] the target is T5, Muscarinic acetylcholine receptor M2 (Homo sapiens, UniProt P08172).
T5 sequence (P08172 whole entry): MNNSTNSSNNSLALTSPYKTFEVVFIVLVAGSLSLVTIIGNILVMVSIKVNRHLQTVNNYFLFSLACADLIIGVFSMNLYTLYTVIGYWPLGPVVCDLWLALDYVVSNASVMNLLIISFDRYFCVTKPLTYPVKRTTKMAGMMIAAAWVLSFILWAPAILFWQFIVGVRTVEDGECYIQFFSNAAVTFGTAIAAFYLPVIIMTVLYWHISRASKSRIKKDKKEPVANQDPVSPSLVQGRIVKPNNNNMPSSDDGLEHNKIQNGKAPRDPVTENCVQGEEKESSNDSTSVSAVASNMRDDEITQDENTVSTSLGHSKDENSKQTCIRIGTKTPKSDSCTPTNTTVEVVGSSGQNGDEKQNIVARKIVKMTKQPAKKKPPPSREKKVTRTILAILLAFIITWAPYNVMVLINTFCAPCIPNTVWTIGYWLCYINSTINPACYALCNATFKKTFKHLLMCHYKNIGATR
It counts as functional, cell-based.

In assay [7] the target is Neuronal acetylcholine receptor subunit alpha-4 (Homo sapiens, UniProt P43681).
Assay [8] has as its target T6, Equilibrative nucleoside transporter 1 (Homo sapiens, UniProt Q99808).
T6 sequence (Q99808 whole entry): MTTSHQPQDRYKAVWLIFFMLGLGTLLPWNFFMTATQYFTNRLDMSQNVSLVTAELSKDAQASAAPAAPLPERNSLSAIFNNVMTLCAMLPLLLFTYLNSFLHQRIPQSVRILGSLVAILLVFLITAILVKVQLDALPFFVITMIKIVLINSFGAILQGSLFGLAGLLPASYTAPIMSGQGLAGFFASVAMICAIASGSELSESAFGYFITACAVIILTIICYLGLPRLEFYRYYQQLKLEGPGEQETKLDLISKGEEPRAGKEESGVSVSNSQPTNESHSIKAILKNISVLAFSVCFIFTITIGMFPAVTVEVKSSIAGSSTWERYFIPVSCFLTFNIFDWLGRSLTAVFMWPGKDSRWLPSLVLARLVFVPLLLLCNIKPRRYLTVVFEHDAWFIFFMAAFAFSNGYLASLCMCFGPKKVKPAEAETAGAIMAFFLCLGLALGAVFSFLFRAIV

Each structure is given as a SMILES string.
Further: assay procedure not described here.

Sequence of Histamine H1 receptor (P35367 whole entry): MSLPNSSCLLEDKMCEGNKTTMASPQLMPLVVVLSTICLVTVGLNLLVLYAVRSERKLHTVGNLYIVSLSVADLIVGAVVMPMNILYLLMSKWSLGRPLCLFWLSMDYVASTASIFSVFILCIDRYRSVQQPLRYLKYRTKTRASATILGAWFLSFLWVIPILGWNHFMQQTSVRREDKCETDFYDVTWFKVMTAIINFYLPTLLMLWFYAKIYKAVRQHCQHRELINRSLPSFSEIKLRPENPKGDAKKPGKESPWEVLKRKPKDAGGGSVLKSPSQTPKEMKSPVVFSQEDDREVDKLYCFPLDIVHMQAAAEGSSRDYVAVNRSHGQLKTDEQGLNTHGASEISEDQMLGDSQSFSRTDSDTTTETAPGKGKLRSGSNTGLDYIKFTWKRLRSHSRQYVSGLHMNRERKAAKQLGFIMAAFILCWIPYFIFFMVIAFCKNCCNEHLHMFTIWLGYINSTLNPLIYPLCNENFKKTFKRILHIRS
Sequence of Neuronal acetylcholine receptor subunit alpha-4 (P43681 whole entry): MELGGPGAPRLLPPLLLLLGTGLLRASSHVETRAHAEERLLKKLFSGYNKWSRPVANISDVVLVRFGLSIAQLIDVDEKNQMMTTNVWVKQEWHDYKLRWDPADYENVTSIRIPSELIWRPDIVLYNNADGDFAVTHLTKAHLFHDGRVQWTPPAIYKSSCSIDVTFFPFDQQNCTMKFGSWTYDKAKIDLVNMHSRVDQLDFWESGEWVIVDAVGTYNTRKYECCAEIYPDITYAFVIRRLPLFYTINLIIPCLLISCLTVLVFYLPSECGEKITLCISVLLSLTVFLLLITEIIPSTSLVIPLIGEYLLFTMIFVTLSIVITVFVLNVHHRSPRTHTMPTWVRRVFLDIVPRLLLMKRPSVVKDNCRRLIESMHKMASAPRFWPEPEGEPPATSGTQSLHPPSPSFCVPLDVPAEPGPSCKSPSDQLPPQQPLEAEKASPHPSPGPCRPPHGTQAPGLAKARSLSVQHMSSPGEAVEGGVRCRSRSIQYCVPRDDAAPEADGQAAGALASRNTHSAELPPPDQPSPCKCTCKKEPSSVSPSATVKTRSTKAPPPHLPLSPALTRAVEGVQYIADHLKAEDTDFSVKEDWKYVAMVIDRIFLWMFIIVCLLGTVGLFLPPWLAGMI
Sequence of Delta-type opioid receptor (P41143 whole entry): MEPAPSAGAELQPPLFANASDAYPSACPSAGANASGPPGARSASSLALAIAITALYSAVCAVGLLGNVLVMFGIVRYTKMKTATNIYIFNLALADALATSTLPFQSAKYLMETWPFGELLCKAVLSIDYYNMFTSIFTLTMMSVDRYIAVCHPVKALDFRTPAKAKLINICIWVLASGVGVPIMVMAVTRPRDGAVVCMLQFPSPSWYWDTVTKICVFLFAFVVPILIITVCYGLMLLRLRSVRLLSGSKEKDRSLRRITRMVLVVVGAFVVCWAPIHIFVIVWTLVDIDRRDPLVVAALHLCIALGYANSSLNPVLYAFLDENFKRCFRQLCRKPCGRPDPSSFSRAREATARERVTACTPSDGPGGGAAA
Sequence of 5-hydroxytryptamine receptor 2A (P28223 whole entry): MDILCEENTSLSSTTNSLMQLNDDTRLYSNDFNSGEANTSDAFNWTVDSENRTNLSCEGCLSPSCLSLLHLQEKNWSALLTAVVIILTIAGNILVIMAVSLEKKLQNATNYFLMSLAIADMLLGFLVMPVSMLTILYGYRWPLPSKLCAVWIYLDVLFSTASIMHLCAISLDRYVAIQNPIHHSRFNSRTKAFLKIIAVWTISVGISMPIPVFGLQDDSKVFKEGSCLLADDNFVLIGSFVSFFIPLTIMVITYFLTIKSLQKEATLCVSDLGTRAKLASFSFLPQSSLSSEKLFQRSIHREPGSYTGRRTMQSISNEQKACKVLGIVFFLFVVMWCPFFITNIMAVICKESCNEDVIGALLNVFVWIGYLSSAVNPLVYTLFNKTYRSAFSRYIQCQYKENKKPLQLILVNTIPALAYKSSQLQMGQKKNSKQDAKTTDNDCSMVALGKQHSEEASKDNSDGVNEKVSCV

For `CC(C)(C)C(=O)Oc1ccc(S(=O)(=O)Nc2ccccc2C(=O)NCC(=O)O)cc1`, the AC50 (in assay [1]; in [2]; at Histamine H1 receptor; in [3]; at Adenosine receptor A1; in assay [4]) was greater than 30 µM throughout. The AC50 in [5], in [6] and in [7] was greater than 30 µM each time.
Turning to `NCC(=O)CCC(=O)O` [AMINOLEVULINIC ACID], the AC50 (in assay [1]; in assay [2]; on Histamine H1 receptor; in assay [3]; at Adenosine receptor A1; in assay [4]) was greater than 30 µM throughout. Besides, the AC50 in [5], in assay [6] and in assay [7] was greater than 30 µM each time.
Turning to `CC(C[N+](C)(C)C)OC(N)=O` (configuration not stated) [BETHANECHOL], the AC50 in assay [1] is greater than 10 µM; in assay [8] it was greater than 10 µM; in assay [2], greater than 10 µM; at Histamine H1 receptor, greater than 10 µM; in assay [3], greater than 30 µM; at Adenosine receptor A1 it was greater than 10 µM. Moreover, the AC50 was greater than 10 µM in assay [4], greater than 30 µM in assay [5] and greater than 10 µM in assay [7].
`COc1ccc2c3c1O[C@H]1[C@@H](O)C=C[C@H]4[C@@H](C2)N(C)CC[C@@]341` [CODEINE]: the AC50 in [1] is greater than 30 µM; in assay [8], greater than 30 µM; on Histamine H1 receptor, greater than 10 µM; on Adenosine receptor A1, greater than 30 µM; in [4] it was greater than 30 µM; in assay [5] it was greater than 10 µM. Moreover, the AC50 in [6] and in assay [7] was greater than 10 µM in each case.
For `CCc1c(Cl)c(O)c(Cl)c(O)c1C(=O)O[C@H]1[C@H](O)[C@H](OC)[C@H](OC/C2=C\C=C\C[C@H](O)/C(C)=C/[C@H](CC)[C@@H](O[C@@H]3OC(C)(C)[C@@H](OC(=O)C(C)C)[C@H](O)[C@@H]3O)/C(C)=C/C(C)=C/C[C@@H]([C@@H](C)O)OC2=O)O[C@@H]1C` [FIDAXOMICIN], the AC50 in assay [8] is 3.6 µM; in assay [2], greater than 30 µM; on Histamine H1 receptor, greater than 30 µM; in assay [3] it was greater than 30 µM; at Adenosine receptor A1 it was greater than 30 µM; in [4], greater than 30 µM. Also, the AC50 in assay [5] and in assay [7] was greater than 10 µM throughout.
Turning to `COc1ccc(CCN(C)CCCC(C#N)(c2cc(OC)c(OC)c(OC)c2)C(C)C)cc1OC` (configuration not stated) [GALLOPAMIL], the AC50 (in assay [1]; in [2]; at Histamine H1 receptor; in assay [3]; at Adenosine receptor A1; in assay [4]) was greater than 30 µM in each case. For the same molecule, the AC50 in [5], in assay [6] and in assay [7] was greater than 30 µM throughout.
Regarding `CC(C)(C)c1cc(C(C)(C)C)c(NC(=O)c2c[nH]c3ccccc3c2=O)cc1O` [IVACAFTOR], the AC50 is greater than 30 µM in assay [1]; greater than 30 µM in [8]; greater than 10 µM on Histamine H1 receptor; greater than 30 µM in assay [3]; greater than 30 µM at Adenosine receptor A1; 26.9 µM in assay [4]. Moreover, the AC50 in assay [5] is greater than 30 µM; in assay [7], greater than 10 µM.
For the molecule `N#Cc1ccc([C@H]2CCc3cncn32)c(F)c1` [OSILODROSTAT], the AC50 in assay [1] is greater than 10 µM; in assay [8] it was greater than 10 µM; on Histamine H1 receptor it was 10 µM; in [3], greater than 10 µM; at Adenosine receptor A1, greater than 10 µM; in assay [4], greater than 10 µM. The AC50 in assay [5] and in [7] was greater than 10 µM in each case.
With `O=C(O)/C=C/c1ccc(Cn2ccnc2)cc1` [OZAGREL], the AC50 (in [1]; in assay [2]; at Histamine H1 receptor; in assay [3]; at Adenosine receptor A1; in assay [4]) was greater than 30 µM each time. The AC50 in assay [5], in assay [6] and in assay [7] was greater than 30 µM each time.
With `Clc1ccc(CCCOCCCN2CCCCC2)cc1` [PITOLISANT], the AC50 in [1] is greater than 30 µM; in assay [2], greater than 30 µM; on Histamine H1 receptor it was 11 µM; in assay [3], greater than 30 µM; on Adenosine receptor A1 it was greater than 30 µM; in [4], greater than 30 µM. Also, the AC50 in assay [5] was greater than 30 µM; in [6] it was 15 µM; in assay [7], greater than 30 µM.
As to `Cc1ccc(-n2nccn2)c(C(=O)N2CCN(c3nc4cc(Cl)ccc4o3)CC[C@H]2C)c1` [SUVOREXANT], the AC50 (in assay [1]; in assay [2]; at Histamine H1 receptor; in assay [3]; at Adenosine receptor A1; in assay [4]) was greater than 30 µM each time. Moreover, the AC50 in [5], in assay [6] and in assay [7] was greater than 30 µM throughout.
As to `COc1cc2c(N)nc(N3CCN(C(=O)OCC(C)(C)O)CC3)nc2c(OC)c1OC` [TRIMAZOSIN], the AC50 (in assay [1]; in [2]; on Histamine H1 receptor; in [3]; on Adenosine receptor A1; in assay [4]) was greater than 30 µM in each case. Moreover, the AC50 in assay [5], in assay [6] and in assay [7] was greater than 30 µM throughout.
`CC(=O)O[C@H]1C[C@@H]2CC[C@@H]3[C@H](CC[C@@]4(C)[C@H]3C[C@H]([N+]3(C)CCCCC3)[C@@H]4OC(C)=O)[C@@]2(C)C[C@@H]1N1CCCCC1` [VECURONIUM]: the AC50 (in assay [1]; in [8]; in [3]; on Adenosine receptor A1; in [4]; in assay [5]) was greater than 30 µM each time. Besides, the AC50 in assay [6] and in assay [7] was greater than 30 µM in each case.
